Patent US9084420B2, “Amide derivative, pest control agent containing the amide derivative, and pest controlling method” (Mitsui Chemicals Agro, Inc., priority 2008, dated 2015)

Tests used:
Format in all cases: in vivo
[1] = test system: Musca domestica; experiment: Pesticidal test against Musca domestica (petri dish residue); conditions: 24 h, acetone solution dried in petri dish, female adults, 25° C., after 1 day, read-out: pesticidal rate
Description: Pesticidal Test Against Musca domestica
1 ml of an acetone solution in which a test compound had been diluted at a predetermined concentration was added dropwise to a petri dish having a diameter of 9 cm, and air-dried, and then the female adults of Musca domestica were released and the petri dish was capped. They were left to stand in a thermostatic chamber at 25° C., and the numbers of the living pests and the dead pests were examined after 1 day. The test was carried out with […] in two replicates.

[2] = test system: Plutella xylostella; experiment: Pesticidal test against Plutella xylostella (cabbage leaf immersion); conditions: 144 h, 3-stage larvae on treated cabbage leaf, 25° C., after 6 days, read-out: pesticidal rate
Description: (§1) Pesticidal Test Against Plutella xylostella A piece of a cabbage leaf was immersed for 30 seconds in a chemical solution in which a test compound had been diluted at a predetermined concentration, and air-dried, and then put into a 7 cm polyethylene cup having a filter paper laid on the bottom thereof, and 3-stage larvae of Plutella xylostella were released. They were left to stand in a thermostatic chamber at 25° C., and the numbers of the living pests and the dead pests were examined after 6 days. The test was carried out with five larvae per group in two replicates.

[3] = test system: Spodoptera litura; experiment: Pesticidal test against Spodoptera litura (cabbage leaf immersion); conditions: 144 h, 2-stage larvae on treated cabbage leaf, 25° C., after 6 days, read-out: pesticidal rate
Description: as §1, with “Spodoptera litura” for “Plutella xylostella”, “2-stage” for “3-stage”

[4] = test system: Spodoptera litura; experiment: Pesticidal test of penetration migration against Spodoptera litura (radish seedling root immersion); conditions: 72 h, radish seedling root immersed 2 days, leaf fed to 2-stage larvae, 25° C., after 3 days, read-out: pesticidal rate
Description: Pesticidal Test of Penetration Migration against Spodoptera litura A root portion of a radish seedling was immersed for 2 days in a chemical solution in which a test compound had been diluted at a predetermined concentration, then the leaf was cut and put into a 7 cm polyethylene cup having a filter paper laid on the bottom thereof, and 2-stage larvae of Spodoptera litura were released. They were left to stand in a thermostatic chamber at 25° C., and the numbers of the living pests and the dead pests were examined after 3 days. The test was carried out with five larvae per group in two replicates.

## COC(=O)CCN(C(=O)c1ccccc1)c1cccc(C(=O)Nc2c(I)cc(C(F)(C(F)(F)F)C(F)(F)F)cc2C(F)(F)F)c1 [5-80, methyl 3-(N-(3-(2-iodo-4-(perfluoropropan-2-yl)-6-(trifluoromethyl)phenylcarbamoyl)phenyl)benzamide)propanoate]
[1]
  pest or weed control at 1000 ppm: ≥ 70%
[2]
  pest or weed control at 100 ppm: ≥ 70%
[3]
  pest or weed control at 100 ppm: ≥ 70%

## Cc1cc(C(F)(C(F)(F)F)C(F)(F)F)cc(C)c1NC(=O)c1cccc(N(CCCC(N)=O)C(=O)c2ccccc2)c1 [6-16, N-(4-amino-4-oxobutyl)-N-(3-(2,6-dimethyl-4-(perfluoropropan-2-yl)phenylcarbamoyl)phenyl)benzamide]
[1]
  pest or weed control at 1000 ppm: ≥ 70%
[2]
  pest or weed control at 100 ppm: ≥ 70%
[3]
  pest or weed control at 100 ppm: ≥ 70%

## CNC(=O)CCN(C(=O)c1ccccc1)c1cccc(C(=O)Nc2c(I)cc(C(F)(C(F)(F)F)C(F)(F)F)cc2C(F)(F)F)c1 [5-86, N-(3-(2-iodo-4-(perfluoropropan-2-yl)-6-(trifluoromethyl)phenylcarbamoyl)phenyl)-N-(3-(methylamino)-3-oxopropyl)benzamide]
[4]
  pest or weed control at 1 ppm: ≥ 70%
[1]
  pest or weed control at 1000 ppm: ≥ 70%
[2]
  pest or weed control at 100 ppm: ≥ 70%
[3]
  pest or weed control at 100 ppm: ≥ 70%

## N#Cc1ccc(C(=O)N(CCC(N)=O)c2cccc(C(=O)Nc3c(Br)cc(C(F)(C(F)(F)F)C(F)(F)F)cc3C(F)(F)F)c2F)cc1 [1-136, 3-(N-(3-amino-3-oxopropyl)-4-cyanobenzamide)-N-(2-bromo-4-(perfluoropropan-2-yl)-6-(trifluoromethyl)phenyl)-2-fluorobenzamide]
[4]
  pest or weed control at 1 ppm: ≥ 70%
[1]
  pest or weed control at 1000 ppm: ≥ 70%
[2]
  pest or weed control at 100 ppm: ≥ 70%
[3]
  pest or weed control at 100 ppm: ≥ 70%

## Cc1cc(C(F)(C(F)(F)F)C(F)(F)F)cc(C)c1NC(=O)c1cccc(N(CCC#N)C(=O)c2ccccc2)c1 [5-8, N-(2-cyanoethyl)-N-(3-(2,6-dimethyl-4-(perfluoropropan-2-yl)phenylcarbamoyl)phenyl)benzamide]
[1]
  pest or weed control at 1000 ppm: ≥ 70%
[2]
  pest or weed control at 100 ppm: ≥ 70%
[3]
  pest or weed control at 100 ppm: ≥ 70%

## Cc1cc(C(F)(C(F)(F)F)C(F)(F)F)cc(C)c1NC(=O)c1cccc(N(CCC(N)=O)C(=O)c2ccccc2)c1F [1-21, 3-(N-(3-amino-3-oxopropyl)benzamide)-N-(2,6-dimethyl-4-(perfluoropropan-2-yl)phenyl)-2-fluorobenzamide]
[4]
  pest or weed control at 1 ppm: ≥ 70%
[2]
  pest or weed control at 100 ppm: ≥ 70%
[3]
  pest or weed control at 100 ppm: ≥ 70%

## C/C(CCN(C(=O)c1ccccc1)c1cccc(C(=O)Nc2c(C)cc(C(F)(C(F)(F)F)C(F)(F)F)cc2C)c1)=N\O [5-105, N-(3-(2,6-dimethyl-4-(perfluoropropan-2-yl)phenylcarbamoyl)phenyl)-N-(3-(hydroxyimino)butyl)benzamide]
[1]
  pest or weed control at 1000 ppm: ≥ 70%
[2]
  pest or weed control at 100 ppm: ≥ 70%
[3]
  pest or weed control at 100 ppm: ≥ 70%

## N#Cc1cccc(C(=O)N(CCC(=O)NO)c2cccc(C(=O)Nc3c(Br)cc(C(F)(C(F)(F)F)C(F)(F)F)cc3Br)c2F)c1 [5-33, 3-(3-cyano-N-(3-(hydroxyamino)-3-oxopropyl)benzamide)-N-(2,6-dibromo-4-(perfluoropropan-2-yl)phenyl)-2-fluorobenzamide]
[4]
  pest or weed control at 1 ppm: ≥ 70%
[2]
  pest or weed control at 100 ppm: ≥ 70%
[3]
  pest or weed control at 100 ppm: ≥ 70%

## NC(=O)CCN(C(=O)c1ccccc1)c1cccc(C(=O)Nc2c(Br)cc(C(F)(C(F)(F)F)C(F)(F)F)cc2C(F)(F)F)c1F [1-171, 3-(N-(3-amino-3-oxopropyl)benzamide)-N-(2-bromo-4-(perfluoropropan-2-yl)-6-(trifluoromethyl)phenyl)-2-fluorobenzamide]
[4]
  pest or weed control at 1 ppm: ≥ 70%
[2]
  pest or weed control at 100 ppm: ≥ 70%
[3]
  pest or weed control at 100 ppm: ≥ 70%

## CC(C)(C)OC(=O)C(CN(C(=O)c1cccc(C#N)c1)c1cccc(C(=O)Nc2c(Br)cc(C(F)(C(F)(F)F)C(F)(F)F)cc2Br)c1F)C(=O)OC(C)(C)C [6-44, di-tert-butyl 2-((3-cyano-N-(3-(2,6-dibromo-4-(perfluoropropan-2-yl)phenylcarbamoyl)-2-fluorophenyl)benzamide)methyl)malonate]
[1]
  pest or weed control at 1000 ppm: ≥ 70%
[2]
  pest or weed control at 100 ppm: ≥ 70%
[3]
  pest or weed control at 100 ppm: ≥ 70%

## N#Cc1ccc(C(=O)N(CCS(N)(=O)=O)c2cccc(C(=O)Nc3c(Br)cc(C(F)(C(F)(F)F)C(F)(F)F)cc3Br)c2F)cc1 [2-133, 3-(4-cyano-N-(2-sulfamoylethyl)benzamide)-N-(2,6-dibromo-4-(perfluoropropan-2-yl)phenyl)-2-fluorobenzamide]
[4]
  pest or weed control at 1 ppm: ≥ 70%
[2]
  pest or weed control at 100 ppm: ≥ 70%
[3]
  pest or weed control at 100 ppm: ≥ 70%

## Cc1cc(C(F)(C(F)(F)F)C(F)(F)F)cc(C)c1N(C)C(=O)c1cccc(N(CS(C)(=O)=O)C(=O)c2ccccc2)c1 [6-8, N-(2,6-dimethyl-4-(perfluoropropan-2-yl)phenyl)-N-methyl-3-(N-(methylsulfonylmethyl)benzamide)benzamide]
[2]
  pest or weed control at 100 ppm: ≥ 70%
[3]
  pest or weed control at 100 ppm: ≥ 70%

## CC(=O)CCN(C(=O)c1ccccc1)c1cccc(C(=O)Nc2c(C)cc(C(F)(C(F)(F)F)C(F)(F)F)cc2C)c1 [5-100, N-(3-(2,6-dimethyl-4-(perfluoropropan-2-yl)phenylcarbamoyl)phenyl)-N-(3-oxobutyl)benzamide]
[1]
  pest or weed control at 1000 ppm: ≥ 70%
[2]
  pest or weed control at 100 ppm: ≥ 70%
[3]
  pest or weed control at 100 ppm: ≥ 70%

## Cc1cc(C(F)(C(F)(F)F)C(F)(F)F)cc(C)c1NC(=O)c1cccc(N(CC=O)C(=O)c2ccccc2)c1 [6-59, N-(3-(2,6-dimethyl-4-(perfluoropropan-2-yl)phenylcarbamoyl)phenyl)-N-(2-oxoethyl)benzamide]
[2]
  pest or weed control at 100 ppm: ≥ 70%
[3]
  pest or weed control at 100 ppm: ≥ 70%

## Cc1cc(C(F)(C(F)(F)F)C(F)(F)F)cc(C)c1N(C)C(=O)c1cccc(N(CC(N)=O)C(=O)c2ccccc2)c1 [6-12, 3-(N-(2-amino-2-oxoethyl)benzamide)-N-(2,6-dimethyl-4-(perfluoropropan-2-yl)phenyl)-N-methylbenzamide]
[2]
  pest or weed control at 100 ppm: ≥ 70%
[3]
  pest or weed control at 100 ppm: ≥ 70%

## Cc1cc(C(F)(C(F)(F)F)C(F)(F)F)cc(C)c1NC(=O)c1cccc(N(CC/C(N)=N/O)C(=O)c2ccccc2)c1 [5-91, N-(3-amino-3-(hydroxyimino)propyl)-N-(3-(2,6-dimethyl-4-(perfluoropropan-2-yl)phenylcarbamoyl)phenyl)benzamide]
[2]
  pest or weed control at 100 ppm: ≥ 70%
[3]
  pest or weed control at 100 ppm: ≥ 70%

## Cc1cc(C(F)(C(F)(F)F)C(F)(F)F)cc(C)c1NC(=O)c1cccc(N(CCC(=O)OCC(NC(=O)OC(C)(C)C)C(=O)OC(C)(C)C)C(=O)c2ccccc2)c1 (stereo not drawn) [5-22, tert-butyl 2-(tert-butoxycarbonylamino)-3-(3-(N-(3-(2,6-dimethyl-4-(perfluoropropan-2-yl)phenylcarbamoyl)phenyl)benzamide)propanoyloxy)propanoate]
[2]
  pest or weed control at 100 ppm: ≥ 70%
[3]
  pest or weed control at 100 ppm: ≥ 70%

## COC(=O)CN(C(=O)c1cccc(N(C)C(=O)c2ccccc2)c1F)c1c(C)cc(C(F)(C(F)(F)F)C(F)(F)F)cc1C [7-221, methyl 2-(N-(2,6-dimethyl-4-(perfluoropropan-2-yl)phenyl)-2-fluoro-3-(N-methylbenzamide)benzamide)acetate]
[2]
  pest or weed control at 100 ppm: ≥ 70%
[3]
  pest or weed control at 100 ppm: ≥ 70%

## NC(=O)CCN(C(=O)c1ccccc1)c1cccc(C(=O)Nc2c(Br)cc(C(F)(C(F)(F)F)C(F)(F)F)cc2Br)c1F [1-163, 3-(N-(3-amino-3-oxopropyl)benzamide)-N-(2,6-dibromo-4-(perfluoropropan-2-yl)phenyl)-2-fluorobenzamide]
[4]
  pest or weed control at 1 ppm: ≥ 70%
[2]
  pest or weed control at 100 ppm: ≥ 70%
[3]
  pest or weed control at 100 ppm: ≥ 70%

## N#Cc1ccc(C(=O)N(CCC(=O)NCC(N)=O)c2cccc(C(=O)Nc3c(Br)cc(C(F)(C(F)(F)F)C(F)(F)F)cc3Br)c2F)cc1 [5-31, 3-(N-(3-(2-amino-2-oxoethylamino)-3-oxopropyl)-4-cyanobenzamide)-N-(2,6-dibromo-4-(perfluoropropan-2-yl)phenyl)-2-fluorobenzamide]
[2]
  pest or weed control at 100 ppm: ≥ 70%
[3]
  pest or weed control at 100 ppm: ≥ 70%

## Cc1cc(C(F)(C(F)(F)F)C(F)(F)F)cc(C)c1NC(=O)c1cccc(N(CCC(=O)NCCCC(NC(=O)OC(C)(C)C)C(=O)OC(C)(C)C)C(=O)c2ccccc2)c1 (stereo not drawn) [5-15, tert-butyl 2-(3-(2,6-dimethyl-4-(perfluoropropan-2-yl)phenylcarbamoyl)phenyl)-14,14-dimethyl-1,5,12-trioxo-1-phenyl-13-oxa-2,6,11-triazapentadecane-10-carboxylate]
[2]
  pest or weed control at 100 ppm: ≥ 70%
[3]
  pest or weed control at 100 ppm: ≥ 70%
